ChEMBL document CHEMBL1136135, “Synthesis of an amphiphilic tetraantennary mannosyl conjugate and incorporation into liposome carriers” (Bioorg Med Chem Lett, 2003)
“And” between values parts separate entries of the source, which are not always exact repeats. Equal entries are not always repeated.

Tests used:
Liposome [1] = test: Mannose concentrations required for 50% turbidity reduction n the Surface of Liposomes; type: functional, subcellular
Liposome [2] = test: Mannose concentrations required for 50% turbidity reduction on the Surface of Liposomes; type: functional, subcellular

IC50 (Liposome [1])	IC50 (Liposome [2])	Structure (SMILES)
20 mM and 30 mM and 50 mM		CCCCCCCC/C=C\CCCCCCCCOCC(COCCOCCOCCOCCNC(=O)C(CCCCNC(=O)C(CCCCNC(=O)COCCOCCS[C@@H]1O[C@H](CO)[C@@H](O)[C@@H](O)[C@@H]1O)NC(=O)COCCOCCS[C@@H]1O[C@H](CO)[C@@H](O)[C@@H](O)[C@@H]1O)NC(=O)C(CCCCNC(=O)COCCOCCS[C@@H]1O[C@H](CO)[C@@H](O)[C@@H](O)[C@@H]1O)NC(=O)COCCOCCS[C@@H]1O[C@H](CO)[C@@H](O)[C@@H](O)[C@@H]1O)OCCCCCCCC/C=C\CCCCCCCC (some centres not stated)
	2 mM and 4 mM and 5 mM	CCCCCCCC/C=C\CCCCCCCCOCC(COCCOCCOCCOCCNC(=O)CCS[C@H]1OC(CO)[C@@H](O)[C@@H](O)C1O)OCCCCCCCC/C=C\CCCCCCCC (some centres not stated)
